Assay results published in the NIST ThermoML archive (doi:10.1016/j.fluid.2016.10.026).

Tests used:
[1] = refractive index (Na D-line) (dimensionless); conditions: 101 kPa, Liquid, Standard Abbe refractometry
[2] = relative permittivity at zero frequency (dimensionless); conditions: 101 kPa, Liquid, capacitive

CC(=O)c1cccs1 [2-acetylthiophene]
Conditions	refractive index, [1]	relative permittivity at zero frequency, [2]
278.15 K	–	32.38
280.65 K	–	32.01
283.15 K	1.5705	31.64
285.65 K	1.5692	31.28
288.15 K	1.568	30.87
290.65 K	1.567	30.47
293.15 K	1.5658	29.94
295.65 K	1.5646	29.69
298.15 K	1.5633	29.19
300.65 K	1.5622	28.92
303.15 K	1.5609	28.47
305.65 K	1.5599	28.14
308.15 K	1.5586	27.76
310.65 K	1.5573	27.43
313.15 K	1.5562	27.05
315.65 K	1.555	26.75
318.15 K	1.5538	26.32
320.65 K	1.5526	25.95
323.15 K	1.5514	25.68
325.65 K	1.5502	25.33
328.15 K	1.549	25.02
330.65 K	1.548	24.7
333.15 K	1.5468	24.33
335.65 K	1.5455	23.98
338.15 K	1.5443	23.6
